This passage reports IC50 and Ki results from ChEMBL document CHEMBL3758087, “7TM X-ray structures for class C GPCRs as new drug-discovery tools. 1. mGluR5” (Bioorg Med Chem Lett, 2016).

Structures are written as SMILES.

Assay [1] concerns the target T1, Metabotropic glutamate receptor 5 (Homo sapiens, UniProt P41594). Briefly: Antagonist activity at human mGluR5 expressed in CHO cells assessed as inhibition of glutamate-induced effect by aequorin bioluminescence assay. Type of assay: cell-based.
The target of assay [2] is T1, Metabotropic glutamate receptor 5. Put plainly: Antagonist activity at mGluR5 (unknown origin).
The target is the same in assay [3]. Put plainly: Antagonist activity at human mGluR5d by fluo-3-based FLIPR assay.
Assay [4] has as its target T2, Metabotropic glutamate receptor 5 (Rattus norvegicus, UniProt P31424). Put plainly: Displacement of [3H]methoxy-PEPgamma from mGluR5 in rat cerebral cortex membranes after 60 mins by scintillation counting analysis. Type of assay: cell membranes, Membrane.
Assay [5] deals with T2, Metabotropic glutamate receptor 5. Briefly: Antagonist activity at rat mGluR5 expressed in HEK293 cells assessed as inhibition of glutamate-induced calcium mobilization by Fluo-4 dye-based fluorescence assay. Type of assay: functional, cell-based.

T1 sequence (P41594 whole entry): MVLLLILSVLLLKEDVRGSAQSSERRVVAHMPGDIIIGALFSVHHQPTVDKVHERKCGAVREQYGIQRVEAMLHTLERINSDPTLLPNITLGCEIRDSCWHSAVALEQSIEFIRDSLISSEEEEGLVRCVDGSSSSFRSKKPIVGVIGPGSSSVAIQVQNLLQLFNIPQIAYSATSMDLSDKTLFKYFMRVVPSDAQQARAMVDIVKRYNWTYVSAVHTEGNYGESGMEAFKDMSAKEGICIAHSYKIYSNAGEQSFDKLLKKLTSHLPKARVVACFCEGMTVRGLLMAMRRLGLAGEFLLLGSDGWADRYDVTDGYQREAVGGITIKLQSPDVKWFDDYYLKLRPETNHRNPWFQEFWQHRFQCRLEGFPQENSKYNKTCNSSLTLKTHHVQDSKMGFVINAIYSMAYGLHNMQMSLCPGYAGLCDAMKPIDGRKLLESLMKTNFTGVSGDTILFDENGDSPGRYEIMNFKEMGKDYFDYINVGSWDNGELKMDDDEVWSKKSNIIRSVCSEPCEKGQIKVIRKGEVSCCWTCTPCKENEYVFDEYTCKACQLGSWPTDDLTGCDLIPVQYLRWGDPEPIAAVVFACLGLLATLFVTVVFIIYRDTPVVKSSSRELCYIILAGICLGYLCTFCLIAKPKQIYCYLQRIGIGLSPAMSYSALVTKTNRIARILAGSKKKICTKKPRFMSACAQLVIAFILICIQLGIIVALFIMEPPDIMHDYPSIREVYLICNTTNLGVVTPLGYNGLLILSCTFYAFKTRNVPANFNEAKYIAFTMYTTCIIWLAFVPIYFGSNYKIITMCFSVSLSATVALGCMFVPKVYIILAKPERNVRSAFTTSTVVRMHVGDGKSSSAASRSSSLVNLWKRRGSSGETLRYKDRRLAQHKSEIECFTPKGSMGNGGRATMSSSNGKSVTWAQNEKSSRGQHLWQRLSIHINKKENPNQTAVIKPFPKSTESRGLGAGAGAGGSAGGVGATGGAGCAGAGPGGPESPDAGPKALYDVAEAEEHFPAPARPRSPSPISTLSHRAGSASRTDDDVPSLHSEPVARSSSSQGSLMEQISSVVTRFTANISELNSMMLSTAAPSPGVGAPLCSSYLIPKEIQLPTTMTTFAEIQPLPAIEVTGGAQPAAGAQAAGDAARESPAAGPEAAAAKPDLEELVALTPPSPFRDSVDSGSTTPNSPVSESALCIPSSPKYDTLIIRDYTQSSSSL
T2 sequence (P31424 whole entry): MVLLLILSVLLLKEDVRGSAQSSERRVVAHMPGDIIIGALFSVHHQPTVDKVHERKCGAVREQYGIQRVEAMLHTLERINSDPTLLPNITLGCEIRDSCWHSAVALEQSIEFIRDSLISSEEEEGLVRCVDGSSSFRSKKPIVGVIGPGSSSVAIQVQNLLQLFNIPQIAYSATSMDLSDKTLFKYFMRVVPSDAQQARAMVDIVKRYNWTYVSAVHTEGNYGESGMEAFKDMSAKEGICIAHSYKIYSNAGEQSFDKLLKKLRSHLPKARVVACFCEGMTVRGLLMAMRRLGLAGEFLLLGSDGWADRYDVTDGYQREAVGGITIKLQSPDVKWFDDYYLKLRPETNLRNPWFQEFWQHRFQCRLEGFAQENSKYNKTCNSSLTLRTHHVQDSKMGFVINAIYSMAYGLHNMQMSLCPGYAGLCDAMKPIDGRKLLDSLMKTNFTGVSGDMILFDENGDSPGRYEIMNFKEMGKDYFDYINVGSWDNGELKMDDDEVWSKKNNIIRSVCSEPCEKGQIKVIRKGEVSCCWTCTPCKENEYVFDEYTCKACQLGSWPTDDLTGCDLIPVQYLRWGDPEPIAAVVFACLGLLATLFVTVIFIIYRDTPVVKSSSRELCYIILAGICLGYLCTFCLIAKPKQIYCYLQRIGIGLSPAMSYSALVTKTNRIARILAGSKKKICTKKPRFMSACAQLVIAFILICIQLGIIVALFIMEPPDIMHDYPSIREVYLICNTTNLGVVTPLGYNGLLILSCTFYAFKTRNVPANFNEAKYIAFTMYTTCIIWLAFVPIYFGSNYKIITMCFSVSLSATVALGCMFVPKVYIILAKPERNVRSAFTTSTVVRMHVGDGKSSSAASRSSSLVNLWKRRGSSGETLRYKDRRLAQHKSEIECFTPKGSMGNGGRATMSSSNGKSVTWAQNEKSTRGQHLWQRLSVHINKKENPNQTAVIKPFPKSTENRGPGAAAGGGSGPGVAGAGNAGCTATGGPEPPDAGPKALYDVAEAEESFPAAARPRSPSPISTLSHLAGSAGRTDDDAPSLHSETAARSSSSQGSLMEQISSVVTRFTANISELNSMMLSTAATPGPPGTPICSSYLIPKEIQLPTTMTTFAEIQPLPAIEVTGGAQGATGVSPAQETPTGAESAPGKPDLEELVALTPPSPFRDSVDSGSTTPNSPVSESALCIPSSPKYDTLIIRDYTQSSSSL

A word on the IC50: it is the midpoint of a concentration-inhibition curve. As to `O=C(Nc1ccnc(Cl)c1)c1nnn2c1CSc1c-2ccc(F)c1Cl`, the IC50 in assay [1] is 0.00079 µM. For `N#Cc1nccnc1N1CCN2[C@@H](CC[C@@H]2c2nnn(-c3cccc(Cl)c3)n2)C1` (racemic), the midpoint of inhibition in assay [2], the IC50, lay at 0.01 µM. In assay [3], `N#Cc1cccc(C#C[C@H]2CCC[C@H]3CN(c4ncccc4C#N)CCN32)c1` (racemic) displayed an IC50 of 0.02 µM.

As a reminder, the Ki is the equilibrium dissociation constant of an inhibitor or competing ligand from its target. The low end stands for higher affinity, the high end for lower affinity. Turning to `Cc1cccc(C(=O)NC23CC4CC(C2)CC(NC(=O)c2cccc(C)n2)(C4)C3)n1`, in assay [4], affinity was put at a Ki of 0.0067 µM.

For the compound `N#Cc1cnc(Nc2nc3ccccc3o2)nc1-c1ccc(F)cc1`, the IC50 in assay [5] turned out to be 0.091 µM.
